In test [1] the test system is Mus musculus. The test is described as follows: Ratio between dead mices and total mices at the dose of 25 (mg/kg/day.); 0/6. The format is functional.
The subject of test [2] is MC-38. As to the kind of experiment: Ratio between Tumor weight of treated mice and Tumor weight of control mice * 100 at the dose of 12.5 (mg/kg/day). The class given is functional.
The subject of test [3] is Mus musculus. The test is described as follows: Ratio between dead mices and total mices at the dose of 12.5 (mg/kg/day.); 0/6. The class given is functional.
Test [4] concerns MC-38. As to the kind of experiment: In vitro inhibitory activity against colon 38 cell proliferation. The format is functional, cell-based. The following applies: Mus musculus.
Test [5] has as its system MC-38. As to the kind of experiment: Ratio between Tumor weight of treated mice and Tumor weight of control mice * 100 at the dose of 50 (mg/kg/day). The class given is functional.
The test system of test [6] is MC-38. As to the kind of experiment: Ratio between Tumor weight of treated mice and Tumor weight of control mice * 100 at the dose of 25 (mg/kg/day). The format is functional.
A further test deals with KB. The test is described as follows: In vitro inhibitory activity against KB (human carcinoma of the nasopharynx) cell proliferation. The format is functional, cell-based.
The test system of test [7] is MC-38. The test is described as follows: Ratio between Tumor weight of treated mice and Tumor weight of control mice * 100 at the dose of 100 (mg/kg/day). The class given is functional.
The test system of test [8] is Mus musculus. As to the kind of experiment: Ratio between dead mices and total mices at the dose of 100 (mg/kg/day.); 0/6. The class given is functional.
Test [9] has as its system Mus musculus. The test is described as follows: Ratio between dead mices and total mices at the dose of 50 (mg/kg/day.); 0/6. The format is functional.
Test [10] has as its system Mus musculus. As to the kind of experiment: Ratio between dead mices and total mices at the dose of 200 (mg/kg/day.); 2/6. The format is functional.
Test [11] relates to MC-38. The test is described as follows: Ratio between Tumor weight of treated mice and Tumor weight of control mice * 100 at the dose of 200 (mg/kg/day). The class given is functional.
Test [12] relates to MC-38. The test is described as follows: Ratio between Tumor weight of treated mice and Tumor weight of control mice * 100 at the dose of 100 (mg/kg/day.). The format is functional.
The subject of test [13] is MC-38. The test is described as follows: Ratio between Tumor weight of treated mice and Tumor weight of control mice * 100 at the dose of 50 (mg/kg/day.). The format is functional.
Test [14] concerns MC-38. The test is described as follows: Ratio between Tumor weight of treated mice and Tumor weight of control mice * 100 at the dose of 400 (mg/kg/day.). The class given is functional.
Test [15] deals with Mus musculus. The test is described as follows: Ratio between dead mices and total mices at the dose of 200 (mg/kg/day.); 0/6. The class given is functional.
Test [16] relates to MC-38. As to the kind of experiment: Ratio between Tumor weight of treated mice and Tumor weight of control mice * 100 at the dose of 200 (mg/kg/day.). The class given is functional.
The subject of test [17] is Mus musculus. As to the kind of experiment: Ratio between dead mices and total mices at the dose of 400 (mg/kg/day.); 0/6. The class given is functional.

Converted amounts (≈) assume the structure as drawn.

Regarding `COc1ccc(S(=O)(=O)Nc2cccnc2Nc2ccc(O)cc2)cc1` [ABT-751], the Deaths/total in the test on Mus musculus [1], in the test on Mus musculus [3], with Mus musculus [8] and in the test on Mus musculus [9] was 0 in each case. Further, the T/C – broadly, the ratio of treated to control – came out at 59% in the test on MC-38 [2], 3% with MC-38 [5], 32% with MC-38 [6] and 2% in the test with MC-38 [7]. The half-maximal inhibitory concentration (IC50) (in general, the point on the concentration scale where inhibition reaches its midpoint) with MC-38 [4] is 0.38 µg/mL (≈ 1.02 µM); in the test on KB, 0.29 µg/mL (≈ 0.781 µM).
Regarding `COc1ccc(Nc2ncccc2NS(=O)(=O)c2ccc(OC)cc2)cc1`, the concentration for half-maximal inhibition (IC50) with MC-38 [4] was 3.6 µg/mL (≈ 9.34 µM); in the test with KB, 1.9 µg/mL (≈ 4.93 µM). Further, the Deaths/total came out at 2 with Mus musculus [10], 0 in the test with Mus musculus [8] and 0 in the test on Mus musculus [9]. For the same compound, the T/C in the test on MC-38 [11] is listed as 0%; in the test with MC-38 [12] it was 1%; with MC-38 [13], 30%.
With `COc1ccc(S(=O)(=O)Nc2cccnc2Nc2ccncc2)cc1`, the Deaths/total with Mus musculus [1], with Mus musculus [3] and in the test with Mus musculus [9] was 0 throughout. The T/C in the test on MC-38 [2] came to 41%; in the test on MC-38 [5], 14%; with MC-38 [6], 35%. Besides, the 50% inhibitory concentration (IC50) in the test with MC-38 [4] worked out at 1.4 µg/mL (≈ 3.93 µM); with KB, 1 µg/mL (≈ 2.81 µM).
Consider `Cc1ccc(S(=O)(=O)Nc2cccnc2Nc2ccccc2)cc1`, for which the half-inhibitory concentration (IC50) with MC-38 [4] amounted to 3.2 µg/mL (≈ 9.43 µM); with KB, 1.5 µg/mL (≈ 4.42 µM). Also, the results for the T/C in the test on MC-38 [14], with MC-38 [12] and in the test on MC-38 [16] were 1%, 20% and 19%, respectively. For the same compound, the Deaths/total in the test on Mus musculus [15], in the test with Mus musculus [8] and with Mus musculus [17] was 0 in each case.
Consider `Cc1ccc(S(=O)(=O)Nc2ccccc2Nc2ccccc2)cc1`, for which the IC50 in the test on MC-38 [4] was 1.2 µg/mL (≈ 3.55 µM); in the test with KB, 0.46 µg/mL (≈ 1.36 µM).
Consider `COc1ccc(S(=O)(=O)Nc2cccnc2Nc2ccccc2)cc1`, for which the half-inhibitory concentration (IC50) in the test on MC-38 [4] was 0.45 µg/mL (≈ 1.27 µM); in the test on KB, 0.27 µg/mL (≈ 0.76 µM). In addition, the Deaths/total in the test with Mus musculus [15], in the test with Mus musculus [8] and with Mus musculus [9] was 0 in each case. Further, the T/C in the test on MC-38 [12] stood at 2%; in the test on MC-38 [16], 1%; in the test on MC-38 [13] it was 27%.

The values above are taken from ChEMBL document CHEMBL1125470, “Novel sulfonamides as potential, systemically active antitumor agents” (J Med Chem, 1992).
